Reference: patent publication US20150275254A1, “ENZYME LOADING, CELLULOSE HYDROLYSIS, AND INHIBITION OF CELLOBIOHYDROLASES USING LIQUID HOT WATER PRETREATMENT” (PURDUE RESEARCH FOUNDATION, priority 2014, published 2015)

What was measured:
[1] = molecular target: β-glucosidase from T. reesei; conditions: cited from earlier work
[2] = molecular target: T1, β-glucosidase from A. niger (Aspergillus niger, UniProt A2RAL4); conditions: cited from earlier work
T1 sequence (A2RAL4 20-860): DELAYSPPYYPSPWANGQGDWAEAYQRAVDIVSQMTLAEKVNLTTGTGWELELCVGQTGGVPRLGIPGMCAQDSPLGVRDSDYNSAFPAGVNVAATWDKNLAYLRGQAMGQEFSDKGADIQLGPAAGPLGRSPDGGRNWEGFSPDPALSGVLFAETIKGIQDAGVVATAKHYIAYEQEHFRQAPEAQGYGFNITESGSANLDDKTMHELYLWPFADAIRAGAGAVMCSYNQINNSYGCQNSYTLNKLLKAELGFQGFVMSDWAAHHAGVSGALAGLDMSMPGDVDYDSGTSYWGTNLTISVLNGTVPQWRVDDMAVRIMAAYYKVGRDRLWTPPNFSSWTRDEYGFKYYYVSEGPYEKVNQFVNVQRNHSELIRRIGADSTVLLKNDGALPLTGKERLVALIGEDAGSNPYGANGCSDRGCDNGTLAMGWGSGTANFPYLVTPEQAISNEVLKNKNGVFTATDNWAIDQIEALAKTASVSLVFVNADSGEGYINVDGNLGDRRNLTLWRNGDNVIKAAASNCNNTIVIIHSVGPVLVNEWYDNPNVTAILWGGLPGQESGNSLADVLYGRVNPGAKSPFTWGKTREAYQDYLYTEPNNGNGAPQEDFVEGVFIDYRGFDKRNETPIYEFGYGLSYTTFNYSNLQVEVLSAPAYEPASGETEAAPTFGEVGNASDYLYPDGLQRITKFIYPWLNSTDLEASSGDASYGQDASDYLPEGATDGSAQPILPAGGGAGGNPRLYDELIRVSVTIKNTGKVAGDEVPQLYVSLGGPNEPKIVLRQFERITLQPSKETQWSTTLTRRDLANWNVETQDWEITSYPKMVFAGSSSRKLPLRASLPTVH

Cellic Ctec2 = assay: Enzymatic hydrolysis of LHW pretreated hardwood (severity log Ro=12.51) at different hydrolysis conditions (FIG. 6); format: biochemical, Trichoderma reesei; conditions: 200 mM NaCl at pH 4.8; 5 FPU (8 mg) Ctec2/g glucan, 72 hrs
Method: In this work, the lignocellulosic substrate was enzymatically hydrolyzed in order to study how the non-productive adsorption affected the enzymatic hydrolysis efficiency. The glucose yield of LHW pretreated hardwood containing 57.9% glucan and 40.3% lignin was measured for a low enzyme loading amount of 5 FPU (8 mg) Ctec2/g glucan at given conditions (FIG. 6). […] This might be due to the decreased cellulase activity at pH 5.5 as shown in microcrystalline cellulose (Avicel) hydrolysis. The overall decrease in T. reesei cellulase cocktail (Ctec2) adsorption onto lignins at elevated pHs was in agreement with the results by Lou et al. (2013). The reduced nonproductive adsorption led to the enhanced glucose yield more than twofold when the dilute acid or sulfite pretreated softwood was hydrolyzed with higher amount (10 FPU/g glucan) of cellulase (Lou et al., 2013).

[3] = adapted from literature; cited from earlier work

O=C(OC[C@H]1O[C@@H](OC(=O)c2cc(O)c(O)c(OC(=O)c3cc(O)c(O)c(O)c3)c2)[C@H](OC(=O)c2cc(O)c(O)c(OC(=O)c3cc(O)c(O)c(O)c3)c2)[C@@H](OC(=O)c2cc(O)c(O)c(OC(=O)c3cc(O)c(O)c(O)c3)c2)[C@@H]1OC(=O)c1cc(O)c(O)c(OC(=O)c2cc(O)c(O)c(O)c2)c1)c1cc(O)c(O)c(OC(=O)c2cc(O)c(O)c(O)c2)c1 [tannic acid]
k, deactivation rate constant [1]: 0.068 h⁻¹ | k, deactivation rate constant [2]: 0.045 h⁻¹

O=C(O)c1cc(O)c(O)c(O)c1 [gallic acid]
k, deactivation rate constant [1]: 0.046 h⁻¹ | k, deactivation rate constant [2]: 0.006 h⁻¹

[Cl-].[Na+] [NaCl]
effect on glucose yield (Cellic Ctec2): did not affect the glucose yield

B1: EGI: T. reesei enzyme, gene cel7b, GH7 (protein, UniProt P07981 23-459, looked up)
Endoglucanase EG-1: QQPGTSTPEVHPKLTTYKCTKSGGCVAQDTSVVLDWNYRWMHDANYNSCTVNGGVNTTLCPDEATCGKNCFIEGVDYAASGVTTSGSSLTMNQYMPSSSGGYSSVSPRLYLLDSDGEYVMLKLNGQELSFDVDLSALPCGENGSLYLSQMDENGGANQYNTAGANYGSGYCDAQCPVQTWRNGTLNTSHQGFCCNEMDILEGNSRANALTPHSCTATACDSAGCGFNPYGSGYKSYYGPGDTVDTSKTFTIITQFNTDNGSPSGNLVSITRKYQQNGVDIPSAQPGGDTISSCPSASAYGGLATMGKALSSGMVLVFSIWNDNSQYMNWLDSGNAGPCSSTEGNPSNILANNPNTHVVFSNIRWGDIGSTTNSTAPPPPPASSTTFSTTRRSSTTSSSPSCTQTHWGQCGGIGYSGCKTCTSGTTCQYSNDYYSQCL
Experimental pI [3]: (3.9-4.5)

B2: EGII: T. reesei enzyme, gene cel5a, GH5 (protein, UniProt P07982 22-418, looked up)
Endoglucanase EG-II: QQTVWGQCGGIGWSGPTNCAPGSACSTLNPYYAQCIPGATTITTSTRPPSGPTTTTRATSTSSSTPPTSSGVRFAGVNIAGFDFGCTTDGTCVTSKVYPPLKNFTGSNNYPDGIGQMQHFVNEDGMTIFRLPVGWQYLVNNNLGGNLDSTSISKYDQLVQGCLSLGAYCIVDIHNYARWNGGIIGQGGPTNAQFTSLWSQLASKYASQSRVWFGIMNEPHDVNINTWAATVQEVVTAIRNAGATSQFISLPGNDWQSAGAFISDGSAAALSQVTNPDGSTTNLIFDVHKYLDSDNSGTHAECTTNNIDGAFSPLATWLRQNNRQAILTETGGGNVQSCIQDMCQQIQYLNQNSDVYLGYVGWGAGSFDSTYVLTETPTSSGNSWTDTSLVSSCLARK
Experimental pI [3]: (4.2-5.5)

B3: CBHI: T. reesei enzyme, gene cel7a, GH7 (protein, UniProt P62694 18-513, looked up)
Exoglucanase 1: QSACTLQSETHPPLTWQKCSSGGTCTQQTGSVVIDANWRWTHATNSSTNCYDGNTWSSTLCPDNETCAKNCCLDGAAYASTYGVTTSGNSLSIGFVTQSAQKNVGARLYLMASDTTYQEFTLLGNEFSFDVDVSQLPCGLNGALYFVSMDADGGVSKYPTNTAGAKYGTGYCDSQCPRDLKFINGQANVEGWEPSSNNANTGIGGHGSCCSEMDIWEANSISEALTPHPCTTVGQEICEGDGCGGTYSDNRYGGTCDPDGCDWNPYRLGNTSFYGPGSSFTLDTTKKLTVVTQFETSGAINRYYVQNGVTFQQPNAELGSYSGNELNDDYCTAEEAEFGGSSFSDKGGLTQFKKATSGGMVLVMSLWDDYYANMLWLDSTYPTNETSSTPGAVRGSCSTSSGVPAQVESQSPNAKVTFSNIKFGPIGSTGNPSGGNPPGGNRGTTTTRRPATTTGSSPGPTQSHYGQCGGIGYSGPTVCASGTTCQVLNPYYSQCL
Experimental pI [3]: (3.6-3.9)

B4: CBHII: T. reesei enzyme, gene cel6a, GH6 (protein, UniProt P07987 25-471, looked up)
Exoglucanase 2: QACSSVWGQCGGQNWSGPTCCASGSTCVYSNDYYSQCLPGAASSSSSTRAASTTSRVSPTTSRSSSATPPPGSTTTRVPPVGSGTATYSGNPFVGVTPWANAYYASEVSSLAIPSLTGAMATAAAAVAKVPSFMWLDTLDKTPLMEQTLADIRTANKNGGNYAGQFVVYDLPDRDCAALASNGEYSIADGGVAKYKNYIDTIRQIVVEYSDIRTLLVIEPDSLANLVTNLGTPKCANAQSAYLECINYAVTQLNLPNVAMYLDAGHAGWLGWPANQDPAAQLFANVYKNASSPRALRGLATNVANYNGWNITSPPSYTQGNAVYNEKLYIHAIGPLLANHGWSNAFFITDQGRSGKQPTGQQQWGDWCNVIGTGFGIRPSANTGDSLLDSFVWVKPGGECDGTSDSSAPRFDSHCALPDALQPAPQAGAWFQAYFVQLLTNANPSFL
Experimental pI [3]: (5.2-5.9)
